Measurements reported in US12171874B2 (OrphAI Therapeutics Inc., priority 2013, dated 2024).
Entries after “also recorded” stand apart in the source; their conditions may differ.

Legend:
[1] = Determination of rapamycin in lung and blood following oropharyngeal aspiration (OPA) and oral gavage (LC-MS/MS); assay type: in vivo, male C57BL/6 mice; conditions: 1 mg/kg; for Blood concentration of rapamycin: OPA, 72 h post-dose
Procedure: Source (for oral gavage): Rapamune Oral® (Pfizer) for oral administration, Lot No.: MWGT, Expiration: July 2016.
Animals: Male C57BL/6 mice, approximately 8 weeks of age, from Charles River Laboratories, Inc, Raleigh, NC. Animals were fed Certified Purina Rodent Chow #5002 and were furnished tap water ad libitum. The analysis of each feed batch for nutrient levels and possible contaminants was performed by the supplier, examined by the Study Director, and maintained in the study records. […] Mice were housed (one per cage) in polycarbonate cages with stainless steel bar lids accommodating a water bottle. Cage sizes are approximately 11.5″×7.5″×5″ high (70 sq. in. floor space) for mice. Contact bedding was Sani-Chips hardwood chips (P. J. Murphy Forest Products Co.; Montville, NJ). Mice were quarantined for a period of 5 days before use on a study. A veterinarian or qualified designee examined the animals prior to their release from quarantine. Temperature and relative humidity in RTI animal rooms were continuously monitored, controlled, and recorded using an automated system (Siebe/Barber-Colman Network 8000 System with Revision 4.4.1 for Signal® software [Siebe Environmental Controls (SEC)/Barber-Colman Company; Loves Park, IL]). The target environmental ranges were 64-79° F. (18° C.-26° C.) for temperature and 30-70% relative humidity, with a 12-h light cycle per day. At the end of the in-life phase, the mice were euthanized by overexposure to carbon dioxide. […]
Dosing: Each animal was weighed prior to dosing to determine the amount of dose to be administered. […] The dose administered to each animal was determined from the weight of the full syringe minus that of the empty syringe. The dosing time was recorded. […]
The concentrations of standards were arranged so that each standard came from an alternate stock standard. A six-point calibration curve, each made in triplicate, was employed for analyte quantitation. […] The concentration range determined was from 1-2000 ng/mL in blood and 2-2000 ng/mL in lung homogenate. […]

[2] = test system: phosphorylated S6 protein; conditions: lung tissue concentration
Text: In the mouse strain used (C57bl/6), the mouse airway and alveolar epithelial cells have constitutively active (phosphorylated, “p”) S6 protein.

renal angiomyolipomas = conditions: oral, up to 2 years, 16 patients; cited from earlier work
[3] = 2012 meta-analysis; cited from earlier work

Row | Blood concentration of rapamycin ([1]; individual animal) | Lung concentration of rapamycin ([1]; gavage (Rapamune Oral), 1 h post-dose, individual animal) | SMILES | Blood concentration of rapamycin ([1]; group) | Drug in the lung that substantially abrogates mTOR signaling as measured by pS6 [2] | Renal angiomyolipoma response (renal angiomyolipomas) | Cancer patients that may experience mild grade (pulmonary) toxicity [3] [%]
1 | <ELOQ | <LOQ | CO[C@H]1C[C@@H]2CC[C@@H](C)[C@@](O)(O2)C(=O)C(=O)N2CCCC[C@H]2C(=O)O[C@H]([C@H](C)C[C@@H]2CC[C@@H](O)[C@H](OC)C2)CC(=O)[C@H](C)/C=C(\C)[C@@H](O)[C@@H](OC)C(=O)[C@H](C)C[C@H](C)/C=C/C=C/C=C/1C [Rapamycin, (3S,6R,7E,9R,10R,12R,14S,15E,17E,19E,21S,23S,26R,27R,34aS)-9,10,12,13,-14,21,22,23,24,25,26,27,32,33,34,34a-hexadecahydro-9,27-dihydroxy-3-[(1R)-2-[(1S,3R,4R)-4-hydroxy-3-methoxycyclohexyl]-1-methylethyl]-10,21-dimethox-y-6,8,12,14,20,26-hexamethyl-23,27-epoxy-3H-pyrido[2,1-c][1,4]oxaazacyclohentriacontine-1,5,11,28,29(4H,6H,31H)-pentone] | below the limit of quantitation; also recorded: undetectable | about 70 ng/g | sustained regression | –
2 | – | – | CO[C@H]1C[C@@H]2CC[C@@H](C)[C@@](O)(O2)C(=O)C(=O)N2CCCC[C@H]2C(=O)O[C@H]([C@H](C)C[C@@H]2CC[C@@H](OCCO)[C@H](OC)C2)CC(=O)[C@H](C)/C=C(\C)[C@@H](O)[C@@H](OC)C(=O)[C@H](C)C[C@H](C)/C=C/C=C/C=C/1C [everolimus] | – | – | – | 10
3 | – | – | CO[C@H]1C[C@@H]2CC[C@@H](C)[C@@](O)(O2)C(=O)C(=O)N2CCCC[C@H]2C(=O)O[C@H]([C@H](C)C[C@@H]2CC[C@@H](OC(=O)C(C)(CO)CO)[C@H](OC)C2)CC(=O)[C@H](C)/C=C(\C)[C@@H](O)[C@@H](OC)C(=O)[C@H](C)C[C@H](C)/C=C/C=C/C=C/1C [temsirolimus] | – | – | – | 10
